Assay results taken from PubChem BioAssay AID588488 (The Scripps Research Institute Molecular Screening Center, 2011).
The source made the active and inactive calls.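 How the source made its calls: active means inhibition of 50% or more in at least one of the four enzyme panels; inactive means below 50% inhibition in every panel.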

What was measured:
Test in all cases: single-point PAD isozyme enzyme inhibition – biochemical, colorimetric, BAEE substrate, HTS hits, selectivity assay for PAD4 inhibitor project, late-stage follow-up (AID 588488)
[1] = target: Protein-arginine deiminase type-2 (Homo sapiens) (UniProt Q9Y2J8); settings: Recombinant PAD1-4, BAEE citrulline colorimetric absorbance; PAD2; at 10 µM; stronger effect = higher value
Chain of Protein-arginine deiminase type-2 (Homo sapiens) (Q9Y2J8 whole entry, looked up): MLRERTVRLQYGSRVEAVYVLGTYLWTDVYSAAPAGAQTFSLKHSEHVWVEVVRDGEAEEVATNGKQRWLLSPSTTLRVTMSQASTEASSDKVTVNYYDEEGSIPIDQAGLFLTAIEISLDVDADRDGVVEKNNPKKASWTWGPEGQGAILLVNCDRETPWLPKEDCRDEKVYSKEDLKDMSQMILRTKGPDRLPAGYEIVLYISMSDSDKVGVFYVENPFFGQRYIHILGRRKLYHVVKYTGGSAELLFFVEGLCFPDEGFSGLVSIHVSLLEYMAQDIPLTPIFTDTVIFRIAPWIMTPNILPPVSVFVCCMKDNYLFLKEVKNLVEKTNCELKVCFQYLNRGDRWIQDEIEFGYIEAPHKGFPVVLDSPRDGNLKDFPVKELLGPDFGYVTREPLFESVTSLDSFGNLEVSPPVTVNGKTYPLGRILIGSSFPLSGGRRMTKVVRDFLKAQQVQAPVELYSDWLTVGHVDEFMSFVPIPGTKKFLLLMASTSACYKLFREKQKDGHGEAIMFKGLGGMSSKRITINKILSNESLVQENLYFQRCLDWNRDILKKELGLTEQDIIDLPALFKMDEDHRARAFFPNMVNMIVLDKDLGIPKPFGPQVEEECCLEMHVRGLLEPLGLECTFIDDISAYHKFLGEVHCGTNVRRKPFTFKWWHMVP

[2] = target: Protein-arginine deiminase type-1 (Homo sapiens) (UniProt Q9ULC6); settings: Recombinant PAD1-4, BAEE citrulline colorimetric absorbance; PAD1; at 10 µM; stronger effect = higher value
Chain of Protein-arginine deiminase type-1 (Homo sapiens) (Q9ULC6 whole entry, looked up): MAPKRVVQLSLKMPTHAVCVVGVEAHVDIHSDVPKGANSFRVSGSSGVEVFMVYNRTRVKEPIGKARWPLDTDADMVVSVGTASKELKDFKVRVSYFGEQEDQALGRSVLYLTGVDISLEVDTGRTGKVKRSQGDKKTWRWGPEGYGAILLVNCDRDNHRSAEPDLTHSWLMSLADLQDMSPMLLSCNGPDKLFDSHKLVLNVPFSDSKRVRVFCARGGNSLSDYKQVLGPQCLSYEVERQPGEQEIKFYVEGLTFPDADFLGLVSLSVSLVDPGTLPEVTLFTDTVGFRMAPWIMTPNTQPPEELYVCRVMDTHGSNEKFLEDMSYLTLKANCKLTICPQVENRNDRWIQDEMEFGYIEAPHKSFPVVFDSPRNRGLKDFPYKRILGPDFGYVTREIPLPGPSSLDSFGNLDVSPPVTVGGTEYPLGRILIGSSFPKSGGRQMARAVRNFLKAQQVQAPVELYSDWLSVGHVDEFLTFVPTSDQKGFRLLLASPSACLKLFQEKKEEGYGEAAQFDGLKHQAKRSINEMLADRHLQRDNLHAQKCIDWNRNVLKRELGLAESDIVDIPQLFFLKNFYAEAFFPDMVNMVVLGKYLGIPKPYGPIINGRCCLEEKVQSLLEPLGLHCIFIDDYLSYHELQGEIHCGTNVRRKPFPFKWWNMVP

[3] = target: Protein-arginine deiminase type-4 (Homo sapiens) (UniProt Q9UM07); settings: Recombinant PAD1-4, BAEE citrulline colorimetric absorbance; PAD4; at 10 µM; stronger effect = higher value
Chain of Protein-arginine deiminase type-4 (Homo sapiens) (Q9UM07 whole entry, looked up): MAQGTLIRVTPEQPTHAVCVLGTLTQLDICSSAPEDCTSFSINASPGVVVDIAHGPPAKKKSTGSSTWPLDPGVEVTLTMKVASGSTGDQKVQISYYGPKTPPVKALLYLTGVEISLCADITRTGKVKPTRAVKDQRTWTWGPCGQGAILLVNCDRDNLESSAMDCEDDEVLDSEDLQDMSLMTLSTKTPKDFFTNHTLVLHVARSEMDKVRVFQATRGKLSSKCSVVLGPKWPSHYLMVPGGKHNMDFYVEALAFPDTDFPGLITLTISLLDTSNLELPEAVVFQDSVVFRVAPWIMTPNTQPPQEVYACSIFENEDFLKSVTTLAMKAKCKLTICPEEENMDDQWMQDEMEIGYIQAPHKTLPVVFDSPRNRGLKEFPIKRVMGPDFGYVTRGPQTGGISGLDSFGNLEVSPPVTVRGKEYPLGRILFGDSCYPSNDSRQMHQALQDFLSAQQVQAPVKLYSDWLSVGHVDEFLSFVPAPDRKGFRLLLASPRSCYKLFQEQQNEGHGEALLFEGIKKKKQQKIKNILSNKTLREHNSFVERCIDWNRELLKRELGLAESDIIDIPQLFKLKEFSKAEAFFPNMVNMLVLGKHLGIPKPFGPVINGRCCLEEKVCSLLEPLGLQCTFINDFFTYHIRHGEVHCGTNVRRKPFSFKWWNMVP

[4] = target: Protein-arginine deiminase type-3 (Homo sapiens) (UniProt Q9ULW8); settings: Recombinant PAD1-4, BAEE citrulline colorimetric absorbance; PAD3; at 10 µM; stronger effect = higher value
Chain of Protein-arginine deiminase type-3 (Homo sapiens) (Q9ULW8 whole entry, looked up): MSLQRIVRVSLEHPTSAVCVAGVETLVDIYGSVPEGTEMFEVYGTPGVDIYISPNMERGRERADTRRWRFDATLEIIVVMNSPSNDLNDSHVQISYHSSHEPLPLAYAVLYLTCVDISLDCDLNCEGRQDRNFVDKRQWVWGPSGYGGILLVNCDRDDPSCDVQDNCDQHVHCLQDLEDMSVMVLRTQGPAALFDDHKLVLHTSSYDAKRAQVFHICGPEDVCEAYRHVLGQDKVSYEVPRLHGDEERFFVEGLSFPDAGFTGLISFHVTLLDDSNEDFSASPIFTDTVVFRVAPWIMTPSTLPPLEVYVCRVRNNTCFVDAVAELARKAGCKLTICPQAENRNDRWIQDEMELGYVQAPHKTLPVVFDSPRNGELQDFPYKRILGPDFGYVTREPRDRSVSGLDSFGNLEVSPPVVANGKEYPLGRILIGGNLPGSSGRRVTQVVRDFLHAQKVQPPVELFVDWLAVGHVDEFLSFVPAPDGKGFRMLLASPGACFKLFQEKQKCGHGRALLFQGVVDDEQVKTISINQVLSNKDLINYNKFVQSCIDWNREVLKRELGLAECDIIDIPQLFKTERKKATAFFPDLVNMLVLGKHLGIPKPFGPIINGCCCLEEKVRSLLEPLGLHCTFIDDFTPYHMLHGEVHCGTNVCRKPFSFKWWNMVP

inhibition [1]	inhibition [2]	inhibition [3]	inhibition [4]	Structure (SMILES)
17% (inactive)	2% (inactive)	16% (inactive)	-3% (inactive)	Cc1nn(-c2ccccc2)c(C)c1NC(=O)COc1ccc(Cl)cc1Cl
22% (inactive)	-7% (inactive)	6% (inactive)	-9% (inactive)	CN(C)CCN(Cc1ccccc1)c1ccccn1
-6% (inactive)	1% (inactive)	4% (inactive)	-4% (inactive)	O=c1cc(-c2ccc(Cl)cc2)[nH][nH]1
3% (inactive)	22% (inactive)	0% (inactive)	-18% (inactive)	Cc1c(NC(=O)CSc2nccn2C)c(=O)n(-c2ccccc2)n1C
-10% (inactive)	8% (inactive)	14% (inactive)	-11% (inactive)	CC(NC(=O)Nc1ccc(O)cc1)(C(F)(F)F)C(F)(F)F
12% (inactive)	27% (inactive)	9% (inactive)	-2% (inactive)	CCOc1nc(Nc2ccc(OC)cc2OC)nc(OCC)n1
26% (inactive)	14% (inactive)	20% (inactive)	3% (inactive)	COc1ccc(-c2cc(=O)[nH][nH]2)cc1
9% (inactive)	17% (inactive)	18% (inactive)	-19% (inactive)	Cc1oc2c(C)c(O)ccc2c(=O)c1-c1ccc2ccccc2n1
45% (inactive)	8% (inactive)	25% (inactive)	3% (inactive)	Cn1c(=O)c2c(ncn2CC(=O)Nc2nc(-c3ccccc3Cl)cs2)n(C)c1=O
18% (inactive)	3% (inactive)	16% (inactive)	6% (inactive)	CCN(CC)c1cccc(OC2=NS(=O)(=O)c3ccccc32)c1
6% (inactive)	1% (inactive)	-1% (inactive)	-7% (inactive)	Cc1cc(-c2nnc(SCC(=O)Nc3ccc(F)c(F)c3)n2N)n[nH]1
13% (inactive)	17% (inactive)	11% (inactive)	-2% (inactive)	S=C(NCc1ccco1)Nc1cccc(Cl)c1
26% (inactive)	5% (inactive)	8% (inactive)	-3% (inactive)	COc1cccc(NC(=O)C2c3cc(OC)c(OC)cc3C(=O)N(C)C2c2cccnc2)c1 (configuration not stated)
15% (inactive)	21% (inactive)	13% (inactive)	-2% (inactive)	Cc1ccc(CNC(=O)c2ccc(C)c(S(=O)(=O)N3CCCCC3)c2)cc1
15% (inactive)	10% (inactive)	6% (inactive)	-14% (inactive)	COC(=O)c1cc(C)nc(Sc2ccccc2N)n1
27% (inactive)	8% (inactive)	12% (inactive)	7% (inactive)	Cc1nonc1OC(C)CNc1ccc([N+](=O)[O-])cc1 (configuration not stated)
4% (inactive)	6% (inactive)	15% (inactive)	-6% (inactive)	Cc1c(C(=O)N2CCCCC2)c(S(=O)(=O)N2CCN(c3ccc(Cl)cc3)CC2)c(C)n1C

inhibition [1]	inhibition [2]	inhibition [3]	inhibition [4]	Structure (SMILES)
7% (inactive)	-3% (inactive)	1% (inactive)	-4% (inactive)	Cc1nn(-c2cccc(Cl)c2)c2c1C(c1cccnc1)C(C#N)=C(N)O2 (configuration not stated)
20% (inactive)	27% (inactive)	42% (inactive)	2% (inactive)	CN(C)CCCNc1cn[nH]c(=O)c1Cl
9% (inactive)	5% (inactive)	3% (inactive)	-24% (inactive)	COc1ccc(CCNC(=O)COC(=O)c2ccc(C)s2)cc1
20% (inactive)	6% (inactive)	26% (inactive)	-3% (inactive)	COc1cccc(NC(=O)CN(C)C(=O)C23CC4CC(CC(Cl)(C4)C2)C3)c1
39% (inactive)	3% (inactive)	28% (inactive)	-12% (inactive)	N#CCCn1[nH]c(-c2ccccc2)cc1=O
15% (inactive)	0% (inactive)	10% (inactive)	17% (inactive)	CCN(CC)S(=O)(=O)c1ccc(N=NC2=C(O)CCCC2=O)cc1
3% (inactive)	-2% (inactive)	17% (inactive)	-2% (inactive)	COc1cccc2cc(C(=O)NC3CC(C)(C)NC(C)(C)C3)c(=O)oc12
17% (inactive)	5% (inactive)	1% (inactive)	-6% (inactive)	Cc1cc(N(C)NC(=S)Nc2ccccc2)nc(C)n1
-8% (inactive)	25% (inactive)	24% (inactive)	8% (inactive)	Cc1cc2ncn(-c3ncccc3[N+](=O)[O-])c2cc1C
10% (inactive)	13% (inactive)	17% (inactive)	-12% (inactive)	N#CCCN(C(=O)Cn1nc(C(=O)O)c2ccccc2c1=O)c1ccccc1
20% (inactive)	5% (inactive)	-3% (inactive)	-2% (inactive)	O=C(NCC1CCCO1)c1cc2c([nH]c3ccccc32)c(-c2ccc(F)cc2)n1 (configuration not stated)
7% (inactive)	9% (inactive)	21% (inactive)	-1% (inactive)	COc1ccc(C2C(C#N)=C(N)N(N(C)C)C3=C2C(=O)CCC3)cc1 (configuration not stated)
21% (inactive)	4% (inactive)	16% (inactive)	-3% (inactive)	CC(=O)N(Cc1cc(=O)[nH]c2ccccc12)c1cccc(C)c1
17% (inactive)	7% (inactive)	12% (inactive)	-3% (inactive)	Cc1ccc(C2CC(=O)Oc3cc(O)ccc32)cc1 (configuration not stated)
14% (inactive)	31% (inactive)	18% (inactive)	-3% (inactive)	COc1ccc(S(=O)(=O)Nc2ccccc2C)cc1
20% (inactive)	18% (inactive)	20% (inactive)	-20% (inactive)	COc1cccc(/C=C2/CN(C)CC3=C2OC(N)=C(C#N)C3c2cccc(OC)c2)c1 (configuration not stated)
